Patent US8163907B2, “Dihydropyridine calcium antagonist compounds, preparation methods, and medical uses thereof” (Cosunter Pharmaceutical Company, priority 2008, dated 2012)
Structures can show the parent of a compound that is named as a salt.

Tested on: isolated rat's thoracic aorta ring
Experiment: Contraction of an isolated rat's thoracic aorta ring caused by KCl (vascular relaxation)
Assay type: cell-based
Conditions: 80 mmol/L KCl, n=6; for IC50: isolated rat thoracic aorta ring with complete endodermis, read-out: IC50, inhibition of contraction of a vascular ring with complete endodermis caused by KCl
Source text: The effect of compounds of the present invention to the contraction of an isolated rat's thoracic aorta ring caused by KCl is described as follows:
The present invention synthesizes 21 new DHP compounds, and some of the compounds are selected for performing pharmacological tests. With reference to Comparison of vasodilatation effect between quercetin and rutin in the isolated rat thoracic aorta authored by ZHOU Xin-mei, YAO Hui, XIA Man-li, et al, and published in Journal of Zhejiang University: Medical Sciences, 2006, 35(1), 29-33 for an embodiment.
A male SD rat, 240-260 g, supplied by Institute of Laboratory Animal Breeding and Reproduction, Qing Long Shan of Jiang Ning. Certificate of Quality No.: SCXK (So) 2002-0018.
NaCl:118.3 mmol/L, KCl:4.7 mmol/L, CaCl2: 2.5 mmol/L, MgSO4.7H2O:1.2 mmol/L, KH2PO4:1.2 mmol/L, NaHCO3:25 mmol/L, and glucose:11.1 mmol/L.
Hit a male rat at its head until it faints. Quickly remove the thoracic aorta, and put it into a K-H solution passed with a mixed gas having 95% O2+5% CO2. Carefully remove connective tissues around the thoracic aorta and cut the blood vessel into a vascular ring of 3 mm wide. Avoid any excessive pulling to prevent damages to the endodermis. Hang the vascular ring into a bathing trough containing 30 ml of K-H liquid, and keep passing the mixed gas of 95% O2+5% CO2, and maintain the temperature at 37±0.5[…]. Adjust the rest tension to 2.0 g. Keep it in equilibrium for 2 hrs, and change the liquid once every 15 min.
Inspection of the activity of the endodermis of the blood vessel: After the thoracic aorta ring is stable, change the liquid once, and add 1 μmol/L of NA into the bathing trough. After the contraction has reached the peak value for 15 min., add 1 μmol/L of Ach. If the expected contraction of the vascular relaxation is greater than 60% after Ach is added, then the endodermis is considered to be complete, or else the endodermis will be damaged.
A thoracic aorta ring with a complete endodermis is selected for conducting the experiment. After the changed liquid is stable, Add 80 mmol/L KCl to induce the maximum contraction amplitude, sequentially accumulate the medications, such that the medicine concentrations are 0.05 μmol/L, 0.1 μmol/L, 0.5 μmol/L, 1 μmol/L, 2 μmol/L, 4 μmol/L, and 10 μmol/L respectively. Record the change of tensions. The vascular relaxation level is indicated by the inhibition rate. In other words, KCl induces a difference of values between the maximum tension of the contraction and the vascular tension after medicines with different concentrations are added. The ratio of differences of the values to the maximum contraction amplitude induced by KCl reflects the level of vascular relaxation. The sample size of the arota rings for each medicine group is 6. In other words, the experiment is performed repeatedly for 6 times.

[1] = Rattus norvegicus, 0.1 μmol/L, x±S, read-out: Inhibition Rate (%)
[2] = Rattus norvegicus, 0.5 μmol/L, x±S, read-out: Inhibition Rate (%)
[3] = Rattus norvegicus, 1 μmol/L, x±S, read-out: Inhibition Rate (%)
[4] = Rattus norvegicus, 2 μmol/L, x±S, read-out: Inhibition Rate (%)
[5] = Rattus norvegicus, 4 μmol/L, x±S, read-out: Inhibition Rate (%)

Compound | IC50 | Inhibition Rate (%) (0.1 μmol/L, x±S) | Inhibition Rate (%) (0.5 μmol/L, x±S) | Inhibition Rate (%) (1 μmol/L, x±S) | Inhibition Rate (%) (2 μmol/L, x±S) | Inhibition Rate (%) (4 μmol/L, x±S) | Inhibition Rate (%) (10 μmol/L, x±S) | inhibition at 0.05 µM (Rattus norvegicus, 0.05 μmol/L, x±S, read-out: Inhibition Rate (%)) | inhibition at 0.1 µM [1] | inhibition at 0.5 µM [2] | inhibition at 1 µM [3] | inhibition at 2 µM [4] | inhibition at 4 µM [5] | inhibition at 10 µM (Rattus norvegicus, 10 μmol/L, x±S, read-out: Inhibition Rate (%))
Levamlodipine Besylate [reference compound] | 4100 nM | 4.5 ± 0.6% | 18.4 ± 2.6% | 37.7 ± 3.6% | 46.8 ± 4.1% | 69.0 ± 5.9% | 84.6 ± 6.1% | – | – | – | – | – | – | –
COC(=O)C1=C(C)NC(C)=C(C(=O)OCCN2CCN(CCOC(c3ccccc3)c3ccccc3)CC2)C1c1cccc([N+](=O)[O-])c1.Cl (stereo not drawn) [Compound I6, 1,4-dihydro-2,6-dimethyl-4-(3-nitrophenyl)-3,5-pyridinecarboxylic acid methyl ester2-(N-4-(diphenylmethoxyethyl)piperazinyl)ethyl ester hydrochloride] | 1900 nM | 9.3 ± 1.0% | 20.5 ± 2.5% | 33.7 ± 2.4% | 49.7 ± 3.5% | 66.9 ± 3.6% | 79.0 ± 4.5% | – | – | – | – | – | – | –
COC(=O)C1=C(C)NC(C)=C(C(=O)OCCN2CCN(CCOc3ccccc3OC)CC2)C1c1cccc([N+](=O)[O-])c1 (stereo not drawn) [Compound I14, 1,4-dihydro-2,6-dimethyl-4-(3-nitrophenyl)-3,5-pyridinecarboxylic acid methyl ester2-(N-4-(2-(2-methoxyphenoxy)ethyl)piperazinyl)ethyl ester hydrochloride] | 200 nM | – | – | – | – | – | – | 27.4 ± 3.4% | 35.7 ± 3% | 62.9 ± 6.8% | 81.7 ± 3.3% | 96.2 ± 4.5% | 101 ± 3.4% | –
COC(=O)C1=C(C)NC(C)=C(C(=O)OCCCN2CCN(CC(O)COc3ccccc3OC)CC2)C1c1cccc([N+](=O)[O-])c1.Cl (stereo not drawn) [II2, 1,4-dihydro-2,6-dimethyl-4-(3-nitrophenyl)-3,5-pyridinecarboxylic acid methyl ester3-(N-4-(3-(2-methoxyphenoxy)-2-hydroxpropyl)piperazinyl)propyl ester hydrochloride] | 800 nM | 11.0 ± 1.5% | 32.2 ± 3.0% | 50.7 ± 5.7% | 65.2 ± 4.2% | 93.4 ± 3.1% | 101.2 ± 3.2% | – | – | – | – | – | – | –

Now from value to compound, other results behind:

IC50 | Compound | Inhibition Rate (%) (0.1 μmol/L, x±S) | Inhibition Rate (%) (0.5 μmol/L, x±S) | Inhibition Rate (%) (1 μmol/L, x±S) | Inhibition Rate (%) (2 μmol/L, x±S) | Inhibition Rate (%) (4 μmol/L, x±S) | Inhibition Rate (%) (10 μmol/L, x±S) | inhibition at 0.05 µM (Rattus norvegicus, 0.05 μmol/L, x±S, read-out: Inhibition Rate (%)) | inhibition at 0.1 µM [1] | inhibition at 0.5 µM [2] | inhibition at 1 µM [3] | inhibition at 2 µM [4] | inhibition at 4 µM [5] | inhibition at 10 µM (Rattus norvegicus, 10 μmol/L, x±S, read-out: Inhibition Rate (%))
500 nM | COC(=O)C1=C(C)NC(C)=C(C(=O)OCCCCN2CCN(CCOc3ccccc3OC)CC2)C1c1cccc([N+](=O)[O-])c1.Cl (stereo not drawn) [Compound I5, 1,4-dihydro-2,6-dimethyl-4-(3-nitrophenyl)-3,5-pyridinecarboxylic acid methyl ester-4-(N-4-(2-(2-methoxyphenoxy)ethyl)piperazinyl)butyl ester hydrochloride] | 24.5 ± 3.2% | 47.9 ± 3.9% | 66.0 ± 4.0% | 75.0 ± 3.5% | 91.6 ± 3.2% | 100.1 ± 3.0% | – | – | – | – | – | – | –
2000 nM | COC(=O)C1=C(C)NC(C)=C(C(=O)OCCCN2CCN(CCOc3ccccc3OC)CC2)C1c1cccc([N+](=O)[O-])c1 (stereo not drawn) [Compound I4, 1,4-dihydro-2,6-dimethyl-4-(3-nitrophenyl)-3,5-pyridinecarboxylic acid methyl ester 3-(N-4-(2-(2-methoxyphenoxy)ethyl)piperazinyl)propyl ester hydrochloride] | – | – | – | – | – | – | – | 13.2 ± 1.3% | 20.5 ± 2.2% | 33.8 ± 2.8% | 59.4 ± 4% | 62.4 ± 4.8% | 72 ± 4.7%
